Assay results taken from paper PMC10674657, “Quinazolin-4-one/3-cyanopyridin-2-one Hybrids as Dual Inhibitors of EGFR and BRAF^V600E: Design, Synthesis, and Antiproliferative Activity” (Pharmaceuticals, 2023).
Read-outs that look alike come from different tables or passages of the source.

Assays:
[1] = Cell viability (cytotoxicity) MTT assay in non-tumorigenic MCF-10A cells; format: cell-based, human; settings: human, MCF-10A mammary epithelial cells
[2] = test system: A-549 human lung carcinoma cell line; assay: Antiproliferative assay, A-549; settings: Homo sapiens, A549, read-out: Antiproliferative Activity IC50 ± SEM, A-549
Protocol: (§1) For a rigorous assessment, the widely accepted MTT assay [63, 64] was employed. Using Doxorubicin, a well-established drug, as the reference standard ensures a benchmark for the synthesized compounds, allowing a contextual understanding of their efficacy.
(§2) The MTT assay [63, 64] was employed for this assessment, with Doxorubicin as the reference drug.
(§3) 24h followed by the addition of synthesized compounds (in 200 μL medium to yield a final concentration of 0.1% (v/v) dimethyl sulfoxide) into individual wells of the plates. Four wells were designated to a single compound. The plates were allowed to incubate at 37°C for 96 h. After wards, the medium was aspirated and 3-[4,5-dimethylthiazol-2-yl]-2,5-diphenyltetrazolium bromide (MTT) (0.4 mg/mL) in medium was added to each well and subsequently incubated for 3 h. The medium was aspirated and 150 μL dimethyl sulfoxide (DMSO) was added to each well.
(§4) The plates were vortexed followed by the measurement of absorbance at 540 nm on a microplate

[3] = test system: MCF-7 human breast adenocarcinoma cell line; assay: Antiproliferative assay, MCF-7; settings: Homo sapiens, MCF7, read-out: Antiproliferative Activity IC50 ± SEM, MCF-7
Protocol: as §1, §2, §3, §4

[4] = test system: HT-29 human colon cancer cell line; assay: Antiproliferative assay, HT-29; settings: Homo sapiens, HT-29, read-out: Antiproliferative Activity IC50 ± SEM, HT-29
Protocol: as §1, §2, §3, §4

[5] = test system: Panc-1 human pancreatic cancer cell line; assay: Antiproliferative assay, Panc-1; settings: Homo sapiens, PANC-1, read-out: Antiproliferative Activity IC50 ± SEM, Panc-1
Protocol: as §1, §2, §3, §4

[6] = test system: four cancer cell lines (A-549, MCF-7, Panc-1, HT-29); assay: Antiproliferative assay, average over four cancer cell lines (GI50); settings: Homo sapiens, read-out: Average IC50 (GI50)
Protocol: as §1, §2, §3, §4

BRAF^V600E [7] = target: T1, BRAF^V600E (Mus musculus, UniProt P28028, V585E); assay: BRAF V600E kinase inhibitory assay; format: biochemical; settings: for IC50: BRAF V600E, mean ± SEM, read-out: BRAF Inhibition IC50 ± SEM; for fold less potent than Erlotinib, BRAF^V600E: ratio of IC50 to Erlotinib
T1 construct: Mouse full-length GST-tagged; purchased Invitrogen PV3849
T1 sequence (P28028 whole entry V585E): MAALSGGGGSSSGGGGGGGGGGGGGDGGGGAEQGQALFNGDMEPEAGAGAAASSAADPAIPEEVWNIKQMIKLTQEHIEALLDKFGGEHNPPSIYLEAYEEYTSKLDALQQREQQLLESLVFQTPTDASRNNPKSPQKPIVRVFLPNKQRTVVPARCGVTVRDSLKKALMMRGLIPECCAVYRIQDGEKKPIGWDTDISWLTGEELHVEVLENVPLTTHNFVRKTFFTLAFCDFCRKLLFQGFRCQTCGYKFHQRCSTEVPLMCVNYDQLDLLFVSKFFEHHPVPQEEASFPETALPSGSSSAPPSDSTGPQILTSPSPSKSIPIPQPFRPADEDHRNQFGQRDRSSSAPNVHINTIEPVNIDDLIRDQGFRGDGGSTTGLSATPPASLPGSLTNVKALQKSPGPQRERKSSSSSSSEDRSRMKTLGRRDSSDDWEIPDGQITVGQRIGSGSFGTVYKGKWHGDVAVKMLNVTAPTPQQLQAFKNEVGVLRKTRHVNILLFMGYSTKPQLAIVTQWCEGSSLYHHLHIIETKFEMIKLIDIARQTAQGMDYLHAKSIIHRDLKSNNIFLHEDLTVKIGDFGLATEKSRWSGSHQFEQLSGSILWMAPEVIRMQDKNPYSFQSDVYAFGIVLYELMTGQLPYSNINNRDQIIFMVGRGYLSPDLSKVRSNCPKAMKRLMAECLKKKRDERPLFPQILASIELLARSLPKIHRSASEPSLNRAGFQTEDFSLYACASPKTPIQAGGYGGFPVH
Text: Mouse full-length GST-tagged
developed using a phosphor screen.

EGFR [8] = target: T2, EGFR (Homo sapiens, UniProt P00533); assay: EGFR-TK inhibitory assay; settings: for fold less potent than Erlotinib, EGFR: ratio of IC50 to Erlotinib
T2 sequence (P00533 669-1210): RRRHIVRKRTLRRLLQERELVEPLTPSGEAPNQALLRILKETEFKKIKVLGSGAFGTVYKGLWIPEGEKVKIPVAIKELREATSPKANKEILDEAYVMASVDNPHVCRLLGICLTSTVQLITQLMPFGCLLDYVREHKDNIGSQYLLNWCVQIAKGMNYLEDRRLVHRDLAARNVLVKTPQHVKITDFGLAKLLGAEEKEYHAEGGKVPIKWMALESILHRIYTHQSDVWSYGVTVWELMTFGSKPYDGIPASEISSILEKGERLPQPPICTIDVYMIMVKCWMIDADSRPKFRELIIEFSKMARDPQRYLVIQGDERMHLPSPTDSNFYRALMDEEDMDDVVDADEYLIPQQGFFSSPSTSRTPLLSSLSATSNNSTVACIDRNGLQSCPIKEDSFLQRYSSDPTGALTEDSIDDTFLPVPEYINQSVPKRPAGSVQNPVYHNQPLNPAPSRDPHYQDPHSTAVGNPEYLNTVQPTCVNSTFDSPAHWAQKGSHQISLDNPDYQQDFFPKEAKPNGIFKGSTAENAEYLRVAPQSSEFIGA
Protocol: Baculoviral expression vectors including pBlueBacHis2B and pFASTBacHTc were used
5ʹ upstream to the EGFR sequence comprised a sequence that encoded (His)6.
Sf-9cells were infected for 72h for protein expression. The pellets of Sf-9 cells were solubilized in
a buffer containing sodium vanadate (100 μM), aprotinin (10 μg/mL), triton (1%), HEPES buffer(50mM), ammonium molybdate (10 μM), benzamidine HCl (16 μg/mL), NaCl (10mM), leupeptin (10 μg/mL) and pepstatin (10 μg/mL) at 0°C for 20 min at pH 7.4, followed by centrifugation for 20 min. To eliminate the nonspecifically bound material, a Ni-NTA super flow packed column was used to pass through and wash the crude extract supernatant first with
10mMand then with 100 mM imidazole. Histidine-linked proteins were first eluted with 250 and
then with 500 mM imidazole subsequent to dialysis against NaCl (50 mM), HEPES (20 mM),
glycerol (10%) and 1 μg/mL each of aprotinin, leupeptin and pepstatin for 120 min. The
purification was performed either at 4 °C or on ice. To record autophosphorylation level, EGFR
kinase assay was carried out based on DELFIA/Time-Resolved Fluorometry. The compounds
were first dissolved in DMSO absolute, subsequent to dilution t o appropriate concentration using
HEPES(25 mM) at pH 7.4. Each compound (10 μL) was incubated with recombinant enzyme (10
μL, 5ng for EGFR, 1:80 dilution in 100 mM HEPES) for 10 min at 25 °C, subsequent to the addition of5X buffer (10 μL, containing 2 mM MnCl2, 100 μM Na3VO4, 20 mM HEPES and 1
mM DTT)and ATP-MgCl2 (20 μL, containing 0.1 mM ATP and 50 mM MgCl2) and incubation
for 1h. The negative and positive controls were included in each plate by the incubation of enzyme
either with or without ATP-MgCl2. The liquid was removed after incubation and the plates were
washed thrice using a wash buffer. Europium-tagged anti phosphotyrosine antibody (75 μL, 400
ng) was added to each well followed by incubation of 1h and then washing of the plates using buffer. The enhancement solution was added to each well and the signal was recorded at excitation
The autophosphorylation percentage inhibition by compounds was calculated using the following equation: Using the curves of percentage inhibition

BRAF^V600E [9] = settings: cited from earlier work
[10] = test system: cancer cell proliferation; settings: cited from earlier work
EGFR [11] = target: T2, EGFR; set-up: acids645–1186; His6 (N); made in house; host or cells: Sf-9 insect cells (baculovirus; pBlueBacHis2B / pFASTBacHTc); settings: cited from earlier work

| IC50 [2] [nM] | IC50 [3] [nM] | IC50 [4] [nM] | IC50 [5] [nM] | IC50 [6] [nM] | Compound | viability at 4 days, 50 µM [1] [%] | IC50 (BRAF^V600E [7]) [nM] | IC50 (EGFR [8]) [nM] | fold less potent than Erlotinib, BRAF^V600E (BRAF^V600E [7]) [fold] | fold less potent than Erlotinib, EGFR (EGFR [8]) [fold] | IC50 (BRAF^V600E [9]) [nM] | GI50 [10] [nM] | IC50 (EGFR [11]) [nM] |
| --- | --- | --- | --- | --- | --- | --- | --- | --- | --- | --- | --- | --- | --- |
| 9200 ± 800 | 9100 ± 800 | 9800 ± 900 | 9300 ± 800 | 9300 | CCn1c(SCC(=O)Nc2ccc(-c3cc(-c4ccccc4)c(C#N)c(=O)[nH]3)cc2)nc2ccccc2c1=O [Compound 7, N-(4-(5-Cyano-6-oxo-4-phenyl-1,6-dihydropyridin-2-yl)phenyl)-2-((3-ethyl-4-oxo-3,4-dihydroquinazolin-2-yl)thio)acetamide] | 90 |  |  |  |  |  |  |  |
| 1800 ± 100 | 1600 ± 100 | 2000 ± 100 | 2000 ± 100 | 1800 | CCn1c(SCC(=O)Nc2ccc(-c3cc(-c4ccc(Cl)cc4)c(C#N)c(=O)[nH]3)cc2)nc2ccccc2c1=O [Compound 9, N-(4-(4-(4-Chlorophenyl)-5-cyano-6-oxo-1,6-dihydropyridin-2-yl)phenyl)-2-((3-ethyl-4-oxo-3,4-dihydroquinazolin-2-yl)thio)acetamide] | 96 | 290 ± 20 | 190 ± 15 |  |  |  |  |  |
| 2400 ± 200 | 2200 ± 450 | 2700 ± 200 | 2600 ± 200 | 2500 | CCn1c(SCC(=O)Nc2ccc(-c3cc(-c4ccc(Br)cc4)c(C#N)c(=O)[nH]3)cc2)nc2ccccc2c1=O [Compound 10, N-(4-(4-(4-Bromophenyl)-5-cyano-6-oxo-1,6-dihydropyridin-2-yl)phenyl)-2-((3-ethyl-4-oxo-3,4-dihydroquinazolin-2-yl)thio)acetamide] | 88 |  |  |  |  |  |  |  |
| 3700 ± 300 | 3600 ± 300 | 4000 ± 300 | 3800 ± 300 | 3800 | CCn1c(SCC(=O)Nc2ccc(-c3cc(-c4ccc(F)cc4)c(C#N)c(=O)[nH]3)cc2)nc2ccccc2c1=O [Compound 11, N-(4-(5-Cyano-4-(4-fluorophenyl)-6-oxo-1,6-dihydropyridin-2-yl)phenyl)-2-((3-ethyl-4-oxo-3,4-dihydroquinazolin-2-yl)thio)acetamide] | 91 |  |  |  |  |  |  |  |
| 7500 ± 600 | 7200 ± 700 | 7700 ± 700 | 7800 ± 700 | 7500 | N#Cc1c(-c2ccccc2)cc(-c2ccc(NC(=O)CSc3nc4ccccc4c(=O)n3-c3ccccc3)cc2)[nH]c1=O [Compound 12, N-(4-(5-Cyano-6-oxo-4-phenyl-1,6-dihydropyridin-2-yl)phenyl)-2-((4-oxo-3-phenyl-3,4-dihydroquinazolin-2-yl)thio)acetamide] | 86 |  |  |  |  |  |  |  |
| 3200 ± 300 | 3100 ± 300 | 3500 ± 300 | 3400 ± 300 | 3300 | COc1ccc(-c2cc(-c3ccc(NC(=O)CSc4nc5ccccc5c(=O)n4-c4ccccc4)cc3)[nH]c(=O)c2C#N)cc1 [Compound 13, N-(4-(5-Cyano-4-(4-methoxyphenyl)-6-oxo-1,6-dihydropyridin-2-yl)phenyl)-2-((4-oxo-3-phenyl-3,4-dihydroquinazolin-2-yl)thio)acetamide] | 87 |  |  |  |  |  |  |  |
| 4100 ± 400 | 3900 ± 400 | 4200 ± 400 | 4200 ± 400 | 4100 | N#Cc1c(-c2ccc(Cl)cc2)cc(-c2ccc(NC(=O)CSc3nc4ccccc4c(=O)n3-c3ccccc3)cc2)[nH]c1=O [Compound 14, N-(4-(4-(4-Chlorophenyl)-5-cyano-6-oxo-1,6-dihydropyridin-2-yl)phenyl)-2-((4-oxo-3-phenyl-3,4-dihydroquinazolin-2-yl)thio)acetamide] | 89 |  |  |  |  |  |  |  |
| 4700 ± 400 | 4600 ± 400 | 4900 ± 400 | 5000 ± 400 | 4800 | N#Cc1c(-c2ccc(Br)cc2)cc(-c2ccc(NC(=O)CSc3nc4ccccc4c(=O)n3-c3ccccc3)cc2)[nH]c1=O [Compound 15, N-(4-(4-(4-Bromophenyl)-5-cyano-6-oxo-1,6-dihydropyridin-2-yl)phenyl)-2-((4-oxo-3-phenyl-3,4-dihydroquinazolin-2-yl)thio)acetamide] | 87 |  |  |  |  |  |  |  |
| 4800 ± 500 | 4700 ± 400 | 5100 ± 500 | 5100 ± 500 | 4900 | N#Cc1c(-c2ccc(F)cc2)cc(-c2ccc(NC(=O)CSc3nc4ccccc4c(=O)n3-c3ccccc3)cc2)[nH]c1=O [Compound 16, N-(4-(5-Cyano-4-(4-fluorophenyl)-6-oxo-1,6-dihydropyridin-2-yl)phenyl)-2-((4-oxo-3-phenyl-3,4-dihydroquinazolin-2-yl)thio)acetamide] | 89 |  |  |  |  |  |  |  |
| 8400 ± 700 | 8100 ± 700 | 9000 ± 700 | 8900 ± 700 | 8600 | C=CCn1c(SCC(=O)Nc2ccc(-c3cc(-c4ccccc4)c(C#N)c(=O)[nH]3)cc2)nc2ccccc2c1=O [Compound 17, 2-((3-Allyl-4-oxo-3,4-dihydroquinazolin-2-yl)thio)-N-(4-(5-cyano-6-oxo-4-phenyl-1,6-dihydropyridin-2-yl)phenyl)acetamide] | 89 |  |  |  |  |  |  |  |

The next lines start with the molecule.

| Compound | IC50 [2] [nM] | IC50 [3] [nM] | IC50 [4] [nM] | IC50 [5] [nM] | IC50 [6] [nM] | viability at 4 days, 50 µM [1] [%] | IC50 (BRAF^V600E [7]) [nM] | IC50 (EGFR [8]) [nM] | fold less potent than Erlotinib, BRAF^V600E (BRAF^V600E [7]) [fold] | fold less potent than Erlotinib, EGFR (EGFR [8]) [fold] | IC50 (BRAF^V600E [9]) [nM] | GI50 [10] [nM] | IC50 (EGFR [11]) [nM] |
| --- | --- | --- | --- | --- | --- | --- | --- | --- | --- | --- | --- | --- | --- |
| CCn1c(SCC(=O)Nc2ccc(-c3cc(-c4ccc(OC)cc4)c(C#N)c(=O)[nH]3)cc2)nc2ccccc2c1=O [Compound 8, N-(4-(5-Cyano-4-(4-methoxyphenyl)-6-oxo-1,6-dihydropyridin-2-yl)phenyl)-2-((3-ethyl-4-oxo-3,4-dihydroquinazolin-2-yl)thio)acetamide] | 1500 ± 100 | 1400 ± 100 | 1700 ± 100 | 1700 ± 100 | 1600 | 89 | 220 ± 15 | 160 ± 12 |  |  |  |  |  |
| C=CCn1c(SCC(=O)Nc2ccc(-c3cc(-c4ccc(OC)cc4)c(C#N)c(=O)[nH]3)cc2)nc2ccccc2c1=O [Compound 18, 2-((3-Allyl-4-oxo-3,4-dihydroquinazolin-2-yl)thio)-N-(4-(5-cyano-4-(4-methoxyphenyl)-6-oxo-1,6-dihydropyridin-2-yl)phenyl)acetamide] | 1100 ± 100 | 1000 ± 100 | 1300 ± 100 | 1300 ± 100 | 1200 | 90 | 140 ± 10 | 110 ± 10 | 2 | 1.4 |  |  |  |
| C=CCn1c(SCC(=O)Nc2ccc(-c3cc(-c4ccc(Cl)cc4)c(C#N)c(=O)[nH]3)cc2)nc2ccccc2c1=O [Compound 19, 2-((3-Allyl-4-oxo-3,4-dihydroquinazolin-2-yl)thio)-N-(4-(4-(4-chlorophenyl)-5-cyano-6-oxo-1,6-dihydropyridin-2-yl)phenyl)acetamide] | 1300 ± 100 | 1200 ± 80 | 1600 ± 100 | 1600 ± 100 | 1400 | 91 | 190 ± 12 | 140 ± 11 | 3 | 1.8 |  |  |  |
| C=CCn1c(SCC(=O)Nc2ccc(-c3cc(-c4ccc(F)cc4)c(C#N)c(=O)[nH]3)cc2)nc2ccccc2c1=O [Compound 21, 2-((3-Allyl-4-oxo-3,4-dihydroquinazolin-2-yl)thio)-N-(4-(5-cyano-4-(4-fluorophenyl) -6-oxo-1,6-dihydropyridin-2-yl)phenyl)acetamide] | 2100 ± 200 | 1900 ± 100 | 2200 ± 100 | 2200 ± 200 | 2100 | 87 |  |  |  |  |  |  |  |
| COc1cccc2c1C(=O)c1c(O)c3c(c(O)c1C2=O)C[C@@](O)(C(=O)CO)C[C@@H]3O[C@H]1C[C@H](N)[C@H](O)[C@H](C)O1 [Doxorubicin, reference compound] | 1200 ± 100 | 900 ± 100 | 1000 ± 100 | 1400 ± 100 | 1100 |  |  |  |  |  |  |  |  |
| COc1ccc(-c2cc(-c3ccc(OC)c(OC)c3)n(CC(=O)Nc3ccc(C4=NNC(c5ccc(OC)c(OC)c5)C4)cc3)c(=O)c2C#N)cc1OC (stereo not drawn) [III] |  |  |  |  |  |  |  |  |  |  | 65 | 25 |  |
| C=CCn1c(SCC(=O)Nc2cccc(C(=O)/C=C/c3ccc(OC)cc3)c2)nc2ccccc2c1=O [II] |  |  |  |  |  |  |  |  |  |  | 650 |  | 110 |
| COc1ccc(/C=C/C(=O)c2ccc(NC(=O)Cn3c(-c4ccc(OC)c(OC)c4)cc(-c4ccc(OC)c(OC)c4)c(C#N)c3=O)cc2)cc1 [IV] |  |  |  |  |  |  |  |  |  |  | 58 | 720 |  |
